Test results taken from ChEMBL document CHEMBL1201862, “PubChem BioAssay data set” (2004).
Values joined by “and” are separate entries in the source; they are usually repeats but may differ in a detail not shown here. Identical values can stand only once. Active and inactive are the calls of the source.

What was measured:
[1] = target: T1, Replicative DNA helicase DnaB (Mycobacterium tuberculosis, UniProt P9WMR3); experiment: DnaB intein splicing inhibitors, dose response, biochemical, cell-free fluorescence (AID 449749); assay type: functional
T1 sequence (P9WMR3 whole entry): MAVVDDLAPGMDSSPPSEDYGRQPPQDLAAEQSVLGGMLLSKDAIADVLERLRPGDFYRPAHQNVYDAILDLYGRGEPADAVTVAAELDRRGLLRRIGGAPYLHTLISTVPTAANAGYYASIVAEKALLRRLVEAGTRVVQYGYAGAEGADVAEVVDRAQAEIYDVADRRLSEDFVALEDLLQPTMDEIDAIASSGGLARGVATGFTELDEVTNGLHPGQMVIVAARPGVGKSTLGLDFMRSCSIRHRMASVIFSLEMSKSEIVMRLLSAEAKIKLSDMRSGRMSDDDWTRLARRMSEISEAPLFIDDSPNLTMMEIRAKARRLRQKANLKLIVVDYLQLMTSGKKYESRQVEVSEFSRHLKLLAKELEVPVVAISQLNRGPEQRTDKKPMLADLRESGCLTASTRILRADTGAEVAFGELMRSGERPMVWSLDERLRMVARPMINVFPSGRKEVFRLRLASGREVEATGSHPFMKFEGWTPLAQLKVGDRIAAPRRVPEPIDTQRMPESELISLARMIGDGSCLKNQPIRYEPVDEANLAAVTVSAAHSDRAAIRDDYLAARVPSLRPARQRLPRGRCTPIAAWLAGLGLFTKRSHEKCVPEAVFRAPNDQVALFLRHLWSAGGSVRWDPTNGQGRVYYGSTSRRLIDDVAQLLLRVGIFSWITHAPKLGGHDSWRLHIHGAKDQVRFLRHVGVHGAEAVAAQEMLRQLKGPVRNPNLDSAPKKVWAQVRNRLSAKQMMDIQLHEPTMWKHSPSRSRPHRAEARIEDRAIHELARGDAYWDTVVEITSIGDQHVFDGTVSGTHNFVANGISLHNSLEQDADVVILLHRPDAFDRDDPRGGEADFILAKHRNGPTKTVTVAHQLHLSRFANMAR

[2] = reduction of Shn3 3'UTR-driven luciferase in osteoblasts – cell-based, Clone20 osteoblasts, firefly luciferase, cherry-picked, dose response (AID 624132); assay type: functional;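 note: firefly luciferase luminescence from reporter carrying the Shn3 3'UTR in osteoblasts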
CHO = CHO cell viability loss, potency – luminescence, cytotoxicity control for TLR9-MyD88 binding inhibitor project, dose response (AID 588339); assay type: functional, cell-based, hamster; details: Cricetulus griseus;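 note: CHO cells stably coexpressing TLR9 and MyD88 fusions from primary screen; compound exposure lasted 48 hours before viability readout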
Bcl-2-related protein A1 [3] = target: T2, Bcl-2-related protein A1 (Mus musculus, UniProt Q07440); experiment: displacement of Bid BH3 peptide from Bfl-1 – biochemical, fluorescence polarization, FITC-Bid, mouse, primary screen (AID 432)
T2 sequence (Q07440 whole entry): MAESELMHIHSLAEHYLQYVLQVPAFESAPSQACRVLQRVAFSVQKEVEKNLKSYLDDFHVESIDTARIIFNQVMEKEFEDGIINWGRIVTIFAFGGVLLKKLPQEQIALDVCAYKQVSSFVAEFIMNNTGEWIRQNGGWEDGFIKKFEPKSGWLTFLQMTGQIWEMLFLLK

Bcl-2-related protein A1 [4] = target: T2, Bcl-2-related protein A1; experiment: small-molecule antagonists of Bfl-1/BH3 interaction – biochemical, TR-FRET, mouse Bfl-1, confirmation (AID 621);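 note: TR-FRET binding of GST-Bfl-1 to FITC-labelled Bid peptide via terbium antibody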
Beta Lactamase = Beta Lactamase (Pseudomonas aeruginosa, UniProt Q932Y6); experiment: BLA reporter interference, concentration series – BLA reporter cells, FRET fluorescence, artefact control for TLR9-MyD88 binding inhibitor project, dose response (AID 588341); assay type: cell-based;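 note: cell based assay in CHO-K1 cells stably expressing beta-lactamase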
Beta Lactamase, sequence (Q932Y6 whole entry): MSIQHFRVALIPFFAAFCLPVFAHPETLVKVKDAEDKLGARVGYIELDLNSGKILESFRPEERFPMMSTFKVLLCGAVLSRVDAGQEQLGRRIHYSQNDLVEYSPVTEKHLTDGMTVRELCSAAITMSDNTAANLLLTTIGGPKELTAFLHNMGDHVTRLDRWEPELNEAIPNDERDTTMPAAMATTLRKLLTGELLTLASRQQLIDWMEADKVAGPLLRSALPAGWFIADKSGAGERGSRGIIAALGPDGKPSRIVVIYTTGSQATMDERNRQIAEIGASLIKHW

Protein RecA = target: T3, Protein RecA (Mycobacterium tuberculosis, UniProt P9WHJ3); experiment: Fluorescence Cell-Free Homogeneous Dose Retest to Identify Inhibitors of RecA-Intein Splicing Activity. [Related pubchem assays (depositor defined):AID2097, AID2223, AID489010, AID492950]; assay type: functional
T3 sequence (P9WHJ3 whole entry): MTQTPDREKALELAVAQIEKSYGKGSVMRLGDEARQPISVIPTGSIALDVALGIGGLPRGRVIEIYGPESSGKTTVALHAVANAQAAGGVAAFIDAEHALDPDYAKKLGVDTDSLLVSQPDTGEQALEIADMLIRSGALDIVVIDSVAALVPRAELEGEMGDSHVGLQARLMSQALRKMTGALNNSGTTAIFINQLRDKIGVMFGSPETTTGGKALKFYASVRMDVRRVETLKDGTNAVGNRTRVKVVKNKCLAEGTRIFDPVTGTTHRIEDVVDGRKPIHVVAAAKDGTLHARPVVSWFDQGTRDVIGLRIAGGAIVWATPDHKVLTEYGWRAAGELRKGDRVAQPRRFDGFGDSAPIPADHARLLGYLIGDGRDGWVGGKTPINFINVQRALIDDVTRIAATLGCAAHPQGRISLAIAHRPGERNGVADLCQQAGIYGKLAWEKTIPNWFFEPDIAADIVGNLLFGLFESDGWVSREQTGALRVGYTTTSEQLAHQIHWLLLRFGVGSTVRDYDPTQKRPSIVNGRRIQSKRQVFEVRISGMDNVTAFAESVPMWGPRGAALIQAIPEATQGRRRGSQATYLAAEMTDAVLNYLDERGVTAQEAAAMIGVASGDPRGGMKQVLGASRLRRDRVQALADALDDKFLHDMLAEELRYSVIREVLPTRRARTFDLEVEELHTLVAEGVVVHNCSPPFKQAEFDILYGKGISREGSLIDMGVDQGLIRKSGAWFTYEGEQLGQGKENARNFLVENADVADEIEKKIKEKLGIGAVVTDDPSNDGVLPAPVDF

[5] = target: Glyceraldehyde-3-phosphate dehydrogenase (Homo sapiens, UniProt P04406)
Glyceraldehyde-3-phosphate dehydrogenase, sequence (P04406 whole entry): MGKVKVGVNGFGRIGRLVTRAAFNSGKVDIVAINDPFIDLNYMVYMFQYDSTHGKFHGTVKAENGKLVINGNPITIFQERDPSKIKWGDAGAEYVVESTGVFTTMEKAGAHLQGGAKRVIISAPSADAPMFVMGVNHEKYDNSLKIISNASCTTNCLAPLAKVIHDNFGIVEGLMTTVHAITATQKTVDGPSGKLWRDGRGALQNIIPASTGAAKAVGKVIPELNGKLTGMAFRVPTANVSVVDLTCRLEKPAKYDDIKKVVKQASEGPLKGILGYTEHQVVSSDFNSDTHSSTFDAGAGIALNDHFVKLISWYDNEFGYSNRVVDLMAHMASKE

[6] = loss of viability in HepG2 cells – cell-based, CellTiter-Glo, cherry-picked, cytotoxicity control for Shn3 inhibitor project, dose response (AID 624134); assay type: functional
[7] = non-specific 3'UTR reporter inhibition in Clone20-Shn3RL – cell-based, Renilla luciferase, cherry-picked, counter-screen for Shn3 inhibitor project, dose response (AID 624133); assay type: functional
[8] = viability loss of HPDE-C7K cells – cell-based, fluorescence, HTS, primary screen (AID 431); assay type: functional; details: Homo sapiens
Bcl-2-related protein A1 [9] = target: T2, Bcl-2-related protein A1; experiment: Bfl-1 binding inhibitors, SAR follow-up, biochemical, fluorescence polarization (AID 1070)
[10] = HPDE-C7 pancreatic duct cell viability loss – fluorescence, HTS (AID 430); assay type: functional, cell-based; details: Homo sapiens
[11] = target: Epstein-Barr nuclear antigen 1 (Epstein-Barr virus (strain B95-8) (HHV-4) (Human herpesvirus 4), UniProt P03211); experiment: inhibition of EBV nuclear antigen 1 DNA binding – biochemical, fluorescence polarization, 1536-well, dose response (AID 2381); parameters: species or system human gammaherpesvirus 4;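 note: fluorescence polarization of a Cy5 DNA probe bound by EBNA-1 protein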
Epstein-Barr nuclear antigen 1, sequence (P03211 whole entry): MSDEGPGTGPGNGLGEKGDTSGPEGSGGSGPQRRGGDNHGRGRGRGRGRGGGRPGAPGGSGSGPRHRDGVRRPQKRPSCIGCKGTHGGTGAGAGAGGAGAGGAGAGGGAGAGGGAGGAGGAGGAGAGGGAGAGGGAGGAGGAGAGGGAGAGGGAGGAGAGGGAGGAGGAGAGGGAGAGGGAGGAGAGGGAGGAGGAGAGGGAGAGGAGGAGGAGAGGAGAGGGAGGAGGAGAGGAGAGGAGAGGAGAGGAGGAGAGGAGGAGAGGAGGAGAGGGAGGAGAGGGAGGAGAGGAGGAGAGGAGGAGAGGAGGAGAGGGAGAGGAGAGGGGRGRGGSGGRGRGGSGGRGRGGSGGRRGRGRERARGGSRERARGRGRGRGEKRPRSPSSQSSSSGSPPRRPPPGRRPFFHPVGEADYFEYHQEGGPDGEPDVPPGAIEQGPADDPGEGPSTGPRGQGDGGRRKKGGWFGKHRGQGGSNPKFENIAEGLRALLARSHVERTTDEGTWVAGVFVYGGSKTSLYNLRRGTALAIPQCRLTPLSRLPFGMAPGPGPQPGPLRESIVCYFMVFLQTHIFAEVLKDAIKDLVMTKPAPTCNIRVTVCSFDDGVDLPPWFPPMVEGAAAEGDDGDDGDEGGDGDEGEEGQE

[12] = target: Lytic switch protein BZLF1 (Epstein-Barr virus (strain B95-8) (HHV-4) (Human herpesvirus 4), UniProt P03206); experiment: inhibition of BZLF1 ZTA DNA binding – biochemical, fluorescence polarization, Epstein-Barr virus, 1536-well, counter-screen for EBNA-1 inhibitor project, dose response (AID 2377); parameters: species or system human gammaherpesvirus 4;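 note: fluorescence polarization of Cy5-labelled ZRE DNA probe bound by purified Zta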
Lytic switch protein BZLF1, sequence (P03206 whole entry): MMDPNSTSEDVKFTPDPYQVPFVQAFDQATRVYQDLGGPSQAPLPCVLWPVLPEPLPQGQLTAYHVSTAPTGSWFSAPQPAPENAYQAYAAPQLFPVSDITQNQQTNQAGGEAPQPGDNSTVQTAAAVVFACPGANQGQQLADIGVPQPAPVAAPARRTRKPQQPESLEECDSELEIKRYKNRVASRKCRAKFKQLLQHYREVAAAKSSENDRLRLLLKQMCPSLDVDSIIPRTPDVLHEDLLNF

[13] = target: T4, Calpain-2 catalytic subunit (Sus scrofa, UniProt P43367); experiment: m-calpain protease blockers, concentration series – biochemical, fluorogenic peptide substrate, dose response (AID 1420); assay type: functional
T4 sequence (P43367 whole entry): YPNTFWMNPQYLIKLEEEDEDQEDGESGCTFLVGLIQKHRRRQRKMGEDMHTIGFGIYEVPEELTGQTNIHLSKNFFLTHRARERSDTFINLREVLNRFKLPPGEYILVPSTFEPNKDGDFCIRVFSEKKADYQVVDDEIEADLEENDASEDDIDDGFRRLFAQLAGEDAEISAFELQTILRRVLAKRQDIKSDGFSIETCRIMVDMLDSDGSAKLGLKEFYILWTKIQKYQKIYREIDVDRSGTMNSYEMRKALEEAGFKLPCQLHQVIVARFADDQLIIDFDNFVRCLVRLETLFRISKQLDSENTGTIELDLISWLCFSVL

Estrogen receptor = Estrogen receptor (Homo sapiens, UniProt P03372);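 note: potency for inhibiting coactivator peptide recruitment to the receptor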
Estrogen receptor, sequence (P03372 whole entry): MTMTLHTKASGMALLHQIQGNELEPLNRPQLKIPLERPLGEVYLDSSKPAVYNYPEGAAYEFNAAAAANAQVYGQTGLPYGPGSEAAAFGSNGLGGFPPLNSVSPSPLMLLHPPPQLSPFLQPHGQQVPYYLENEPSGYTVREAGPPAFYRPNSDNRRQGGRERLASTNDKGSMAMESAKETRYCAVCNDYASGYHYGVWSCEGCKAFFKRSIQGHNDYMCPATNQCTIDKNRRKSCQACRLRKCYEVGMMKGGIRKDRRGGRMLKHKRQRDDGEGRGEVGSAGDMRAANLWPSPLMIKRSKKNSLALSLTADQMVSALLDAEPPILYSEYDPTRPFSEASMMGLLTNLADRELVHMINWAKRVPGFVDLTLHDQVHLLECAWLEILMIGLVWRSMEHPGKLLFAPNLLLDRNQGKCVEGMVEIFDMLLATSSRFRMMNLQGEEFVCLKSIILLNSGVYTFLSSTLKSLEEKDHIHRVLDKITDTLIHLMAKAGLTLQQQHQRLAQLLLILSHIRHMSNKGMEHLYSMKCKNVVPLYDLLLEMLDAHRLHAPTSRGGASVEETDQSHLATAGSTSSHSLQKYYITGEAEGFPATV

For `CCOC(=O)CS(=O)(=O)c1nc(-c2ccc(F)cc2)cc(C(F)(F)F)n1`, the AC50 [1] was 3.35 µM (active), the AC50 [2] was 1.78 µM (active) and the IC50 (CHO) was 2.88 µM (active). The IC50 (Bcl-2-related protein A1 [3]) was 3.78 µM (active), the IC50 (Bcl-2-related protein A1 [4]) was 3.41 µM (active) and 1.46 µM (active) and the IC50 (Beta Lactamase) was 14.4 µM (inactive). The EC50 (Protein RecA) was 3.3 µM (active), the IC50 [5] was > 100 µM (not active) and the AC50 [6] was 20.9 µM (active). The AC50 [7] was 6.97 µM (active), the EC50 [8] was 6.05 µM (active) and the IC50 (Bcl-2-related protein A1 [9]) was 2.16 µM (active). For the same molecule, the EC50 [10] was 9.29 µM (active).
In the case of `CCOc1ccc(C(=O)NC(=S)Nc2ccc(NC(=O)C(C)C)cc2)cc1[N+](=O)[O-]`, the IC50 [11] is reported as 1.89 µM (active) and the IC50 [12] is reported as > 111 µM (not active).
For `Cc1nnc(Oc2ccccc2F)c2ccccc12`, the IC50 [13] was > 50 µM (not active) and the IC50 (Estrogen receptor) was 30 µM (active).
